According to PubChem BioAssay (NCI):
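Cultured in 96-well plates, cells were exposed to test compound for 48 hours across five concentrations. GI50 is the concentration that inhibits growth by half. TGI marks complete inhibition of growth.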

What was measured:
Experiment in all cases: DTP human tumour cell line panel, 48 h
786-0 renal = system: 786-0 renal
A498 renal = system: A498 renal
A549 NSCLC = system: A549 NSCLC
ACHN renal = system: ACHN renal
BT-549 breast = system: BT-549 breast
CAKI-1 renal = system: CAKI-1 renal
CCRF-CEM leukemia = system: CCRF-CEM leukemia
COLO 205 colon = system: COLO 205 colon
DU-145 prostate = system: DU-145 prostate
EKVX NSCLC = system: EKVX NSCLC
HCC-2998 colon = system: HCC-2998 colon
HCT-116 colon = system: HCT-116 colon
HCT-15 colon = system: HCT-15 colon
HL-60(TB) leukemia = system: HL-60(TB) leukemia
HOP-62 NSCLC = system: HOP-62 NSCLC
HOP-92 NSCLC = system: HOP-92 NSCLC
HS 578T breast = system: HS 578T breast
HT29 colon = system: HT29 colon
IGROV1 ovarian = system: IGROV1 ovarian
K-562 leukemia = system: K-562 leukemia
KM12 colon = system: KM12 colon
LOX IMVI melanoma = system: LOX IMVI melanoma
M14 melanoma = system: M14 melanoma
MALME-3M melanoma = system: MALME-3M melanoma
MCF7 breast = system: MCF7 breast
MDA-MB-231 breast = system: MDA-MB-231 breast
MDA-MB-435 = system: MDA-MB-435
MDA-MB-468 breast = system: MDA-MB-468 breast
MOLT-4 leukemia = system: MOLT-4 leukemia

COc1ccc(C(=O)/C=C/c2cccc(Cl)c2Cl)cc1S(N)(=O)=O
GI50 (786-0 renal): 1.88 µM
TGI (786-0 renal): 4.28 µM
GI50 (A498 renal): 9.6 µM
TGI (A498 renal): 20 µM
GI50 (A549 NSCLC): 2.52 µM
TGI (A549 NSCLC): 9.42 µM
GI50 (ACHN renal): 1.77 µM
TGI (ACHN renal): 3.9 µM
GI50 (BT-549 breast): 4.73 µM
TGI (BT-549 breast): 17 µM
GI50 (CAKI-1 renal): 4.36 µM
TGI (CAKI-1 renal): 15 µM
GI50 (CCRF-CEM leukemia): 5.74 µM
TGI (CCRF-CEM leukemia): 33.3 µM
GI50 (COLO 205 colon): 2.75 µM
TGI (COLO 205 colon): 10.3 µM
GI50 (DU-145 prostate): 2.86 µM
TGI (DU-145 prostate): 10.2 µM
GI50 (EKVX NSCLC): 10.3 µM
TGI (EKVX NSCLC): 20.9 µM
GI50 (HCC-2998 colon): 4.21 µM
TGI (HCC-2998 colon): 15.5 µM
GI50 (HCT-116 colon): 1.31 µM
TGI (HCT-116 colon): 2.72 µM
GI50 (HCT-15 colon): 1.29 µM
TGI (HCT-15 colon): 2.94 µM
GI50 (HL-60(TB) leukemia): 7.84 µM
TGI (HL-60(TB) leukemia): 34.2 µM
GI50 (HOP-62 NSCLC): 2.3 µM
TGI (HOP-62 NSCLC): 7.12 µM
GI50 (HOP-92 NSCLC): 5.44 µM
TGI (HOP-92 NSCLC): 17.2 µM
GI50 (HS 578T breast): 8.64 µM
TGI (HS 578T breast): 32.1 µM
GI50 (HT29 colon): 1.52 µM
TGI (HT29 colon): 2.99 µM
GI50 (IGROV1 ovarian): 3.24 µM
TGI (IGROV1 ovarian): 12.4 µM
GI50 (K-562 leukemia): 2.67 µM
TGI (K-562 leukemia): 24.1 µM
GI50 (KM12 colon): 1.99 µM
TGI (KM12 colon): 4.8 µM
GI50 (LOX IMVI melanoma): 1.38 µM
TGI (LOX IMVI melanoma): 2.54 µM
GI50 (M14 melanoma): 9.52 µM
TGI (M14 melanoma): 21 µM
GI50 (MALME-3M melanoma): 9.71 µM
TGI (MALME-3M melanoma): 20.1 µM
GI50 (MCF7 breast): 3.17 µM
TGI (MCF7 breast): 13.7 µM
GI50 (MDA-MB-231 breast): 2.57 µM
TGI (MDA-MB-231 breast): 7.61 µM
GI50 (MDA-MB-435): 9.65 µM
TGI (MDA-MB-435): 20.7 µM
GI50 (MDA-MB-468 breast): 2.93 µM
TGI (MDA-MB-468 breast): 13.1 µM
GI50 (MOLT-4 leukemia): 2.09 µM
TGI (MOLT-4 leukemia): 6 µM
